Where two headings read alike, the source gives them in different places.
Legend:
MDA-MB-231 = experiment: IC50 cell-based assay, adherent cells, MDA-MB-231; details: Homo sapiens, Breast, triple neg, 72 hours, read-out: IC50 of Compounds in Adherent Cell Types
Procedure: (§1) In one embodiment, the IC50s of the compounds provided herein were determined in cell-based assays using adherent cells. In one embodiment, the activity of the compounds provided herein were determined in a cell-based assay using the triple negative breast cancer cell line MDA-MB-468. In one embodiment, the adherent cells used in the cell-based assays may be a cell type selected from Table 1. In one embodiment, the cell-based assay may be carried out as provided herein. On day 0, cells were seeded at 20,000 cells per well in 100 µL of media into individual wells of a 96-well tissue culture plate. The next day, compounds were diluted to twice the desired final concentration and added in 100 µL of media for a final volume of 200 μL. Standard solutions for each compound were prepared at 1000× concentration in DMSO. The highest concentration was 30 mM. Serial 1:1 dilutions were made from there for a 6- or 9-point curve (e.g., 30 mM, 15 mM, 7.5 mM, etc). Compounds were then diluted 1:500 in media, and 100 µL of the resulting solution was added to each well for a final dilution of 1:1000. Each concentration of compound was tested in triplicate. Cells were incubated at 37° C. with 5% CO2. After 72 hours, 20 μL of CellTiter 96 Aqueous One Solution Cell Proliferation Assay (Promega) was added to each well. Cells were placed back in the incubator, and the absorbance at 490 nm was read after 2-3 hours. The concentration of compound that decreased the number of metabolically active cells by 50% was determined and reported as the IC50. “Percent Viability” was determined by subtracting the average background value (media only) and expressed as a ratio to the average value obtained from cells treated with only DMSO.

Pfeiffer = experiment: IC50 cell-based assay, suspension cells, Pfeiffer; details: Homo sapiens, Lymphoma, Diffuse large b-cell, read-out: IC50 of Compounds in Suspension Cell Types
Procedure: as §1
(§2) In one embodiment, the IC50s of the compounds provided herein were determined in cell-based assays using suspension cells. In one embodiment, the activity of the compounds provided herein were determined in a cell-based assay using the JeKo-1 cell line (mantle cell lymphoma) or the Pfeiffer cell line (diffuse large B-cell lymphoma). In one embodiment, the suspension cells used in the cell-based assays may be a cell type selected from Table 2. Assays with suspension cells were similar except that 40,000-60,000 cells were added to each well and compounds were added immediately after cell plating.

Kg1a = experiment: IC50 cell-based assay, suspension cells, Kg1a; details: Homo sapiens, KG-1a, Leukemia, AML, read-out: IC50 of Compounds in Suspension Cell Types
Procedure: as §1, §2

U87-MG = experiment: IC50 cell-based assay, adherent cells, U87-MG; details: Homo sapiens, U-87 MG, Brain, glioblastoma, 72 hours, read-out: IC50 of Compounds in Adherent Cell Types
Procedure: as §1

AsPC-1 = experiment: IC50 cell-based assay, adherent cells, AsPC-1; details: Homo sapiens, ASPC1, Pancreas, carcinoma, 72 hours, read-out: IC50 of Compounds in Adherent Cell Types
Procedure: as §1

A549 = experiment: IC50 cell-based assay, adherent cells, A549; details: Homo sapiens, Lung, NSCLC, 72 hours, read-out: IC50 of Compounds in Adherent Cell Types
Procedure: as §1

A431 = experiment: IC50 cell-based assay, adherent cells, A431; details: Homo sapiens, A-431, Skin, epidermoid carcinoma, 72 hours, read-out: IC50 of Compounds in Adherent Cell Types
Procedure: as §1

SK-MEL-28 = experiment: IC50 cell-based assay, adherent cells, SK-MEL-28; details: Homo sapiens, Melanoma, 72 hours, read-out: IC50 of Compounds in Adherent Cell Types
Procedure: as §1

MHH-CALL-4 = experiment: IC50 cell-based assay, suspension cells, MHH-CALL-4; details: MHHCALL4, Leukemia, B-ALL (CRLF2 Hi), read-out: IC50 of Compounds in Suspension Cell Types
Procedure: as §1, §2

Z138, JeKo-1 = experiment: IC50 cell-based assay, suspension cells, Z138, JeKo-1; details: Lymphoma, Mantle cell, read-out: IC50 of Compounds in Suspension Cell Types
Procedure: as §1, §2

Panc-1 = experiment: IC50 cell-based assay, adherent cells, Panc-1; details: Homo sapiens, Pancreas, epitheloid carcinoma, 72 hours, read-out: IC50 of Compounds in Adherent Cell Types
Procedure: as §1

Nalm-6-VR = experiment: IC50 cell-based assay, suspension cells, Nalm-6-VR; details: Leukemia, B-ALL, Vincristine resistant, read-out: IC50 of Compounds in Suspension Cell Types
Procedure: as §1, §2

OVCAR-3 = experiment: IC50 cell-based assay, adherent cells, OVCAR-3; details: Homo sapiens, Ovarian, adenocarcinoma, 72 hours, read-out: IC50 of Compounds in Adherent Cell Types
Procedure: as §1

SKBR-3 = experiment: IC50 cell-based assay, adherent cells, SKBR-3; details: Homo sapiens, SK-BR-3, Breast, ER−, 72 hours, read-out: IC50 of Compounds in Adherent Cell Types
Procedure: as §1

HT-29 = experiment: IC50 cell-based assay, adherent cells, HT-29; details: Homo sapiens, Colorectal, adenocarcinoma, 72 hours, read-out: IC50 of Compounds in Adherent Cell Types
Procedure: as §1

Nalm-6 = experiment: IC50 cell-based assay, suspension cells, Nalm-6; details: Homo sapiens, Leukemia, B-ALL, read-out: IC50 of Compounds in Suspension Cell Types
Procedure: as §1, §2

FaDu = experiment: IC50 cell-based assay, adherent cells, FaDu; details: Homo sapiens, Pharynx, squamous cell, 72 hours, read-out: IC50 of Compounds in Adherent Cell Types
Procedure: as §1

[1] = system: triple negative breast cancer cell line MDA-MB-468; experiment: IC50 cell-based assay, adherent cells, MDA-MB-468; details: Homo sapiens
Procedure: as §1
The IC50s of the compounds provided herein were determined in cell-based assay using triple negative breast cancer cell line MDA-MB-468.

[2] = MDA-MB-468, Breast, triple neg, 72 hours, Table 1, read-out: IC50 of Compounds in Adherent Cell Types
[3] = MDA-MB-468 cells, Table 3, read-out: IC50 of Compounds in MDA-MB-468 Cells

Row | IC50 (MDA-MB-231) [µM] | IC50 (Pfeiffer) [µM] | IC50 (Kg1a) [µM] | IC50 (U87-MG) [µM] | IC50 (AsPC-1) [µM] | IC50 (A549) [µM] | IC50 (A431) [µM] | IC50 (SK-MEL-28) [µM] | IC50 (MHH-CALL-4) [µM] | IC50 (Z138, JeKo-1) [µM] | IC50 (Panc-1) [µM] | IC50 (Nalm-6-VR) [µM] | IC50 (OVCAR-3) [µM] | IC50 (SKBR-3) [µM] | IC50 (HT-29) [µM] | IC50 (Nalm-6) [µM] | IC50 (FaDu) [µM] | IC50 [1, 2] [µM] | IC50 [1, 3] [µM] | Structure (SMILES)
1 | < 5 | < 5 | < 5 | 5 to 10 | 5 to 10 | 5 to 10 | < 5 | 5 to 10 | < 5 | < 5 | 5 to 10 | < 5 | 5 to 10 | < 5 | 5 to 10 | < 5 | < 5 | < 5 | 1.5 | O=C(Nc1cc(C(F)(F)F)cc(C(F)(F)F)c1)c1cc(-c2ccc(Cl)cc2)oc1C(F)(F)F [Compound 2, 5-(4-Chlorophenyl)-N-(3,5-bistrifluoromethylphenyl)-2-trifluoromethylfuran-3-carboxamide]
2 | < 5 | < 5 | < 5 | < 5 | < 5 | < 5 | < 5 | < 5 | 5 to 10 | < 5 | < 5 | < 5 | < 5 | < 5 | < 5 | < 5 | < 5 | < 5 | 1.5 | O=C(Nc1cc(C(F)(F)F)cc(C(F)(F)F)c1)c1cc(-c2ccccc2)oc1C(F)(F)F [Compound 1, 5-Phenyl-2-trifluoromethyl-furan-3-carboxylic acid (3,5-bis-trifluoromethyl-phenyl)-amide]

Reference: patent publication US8722731B2, “Furanyl compounds and the use thereof” (NovoMedix, LLC, priority 2010, dated 2014)
